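Grown in 96-well plates, cells were treated for 48 hours with each compound at five concentrations. Insufficient inhibition: endpoint recorded as highest concentration tested. TGI denotes the concentration required for complete inhibition of growth.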
Key:
Assay in all cases: growth of human tumour cells (NCI), 48 h
[1] = tested on: SF-268 CNS
[2] = tested on: OVCAR-4 ovarian
[3] = tested on: U251 CNS
[4] = tested on: UACC-257 melanoma
[5] = tested on: A498 renal
[6] = tested on: SK-MEL-2 melanoma
[7] = tested on: SF-539 CNS
[8] = tested on: HCT-116 colon
[9] = tested on: CCRF-CEM leukemia
[10] = tested on: A549 NSCLC
[11] = tested on: NCI-H522 lung
[12] = tested on: CAKI-1 renal
[13] = tested on: LOX IMVI melanoma
[14] = tested on: SR leukemia
[15] = tested on: SK-MEL-5 melanoma
[16] = tested on: UACC-62 melanoma
[17] = tested on: HOP-62 NSCLC
[18] = tested on: OVCAR-8 ovarian
[19] = tested on: RPMI-8226 leukemia
[20] = tested on: DMS 114 small cell lung
[21] = tested on: 786-0 renal
[22] = tested on: OVCAR-5 ovarian
[23] = tested on: SNB-19 CNS
[24] = tested on: NCI-H23 lung
[25] = tested on: TK-10 renal
[26] = tested on: XF 498 CNS
[27] = tested on: SK-MEL-28 melanoma
[28] = tested on: KM12 colon
[29] = tested on: COLO 205 colon
[30] = tested on: EKVX NSCLC
[31] = tested on: KM20L2 colon
[32] = tested on: SW-620 colon
[33] = tested on: HCC-2998 colon
[34] = tested on: MALME-3M melanoma
[35] = tested on: HL-60(TB) leukemia
[36] = tested on: IGROV1 ovarian
[37] = tested on: SF-295 CNS
[38] = tested on: M19-MEL melanoma
[39] = tested on: HOP-92 NSCLC
[40] = tested on: HT29 colon
[41] = tested on: MOLT-4 leukemia
[42] = tested on: K-562 leukemia
[43] = tested on: SN12C renal
[44] = tested on: OVCAR-3 ovarian
[45] = tested on: UO-31 renal
[46] = tested on: ACHN renal
[47] = tested on: M14 melanoma
[48] = tested on: DMS 273 small cell lung
[49] = tested on: SK-OV-3 ovarian
[50] = tested on: SNB-78 CNS
[51] = tested on: HCT-15 colon
[52] = tested on: LXFL 529 NSCLC
[53] = tested on: RXF-631 renal

N#C/C(=C\c1ccccc1F)C(=O)c1ccccc1
TGI [1]: > 100 µM
TGI [2]: > 100 µM
TGI [3]: > 100 µM
TGI [4]: > 100 µM
TGI [5]: > 100 µM
TGI [6]: > 100 µM
TGI [7]: > 100 µM
TGI [8]: > 100 µM
TGI [9]: > 100 µM
TGI [10]: > 100 µM
TGI [11]: > 100 µM
TGI [12]: > 100 µM
TGI [13]: > 100 µM
TGI [14]: > 100 µM
TGI [15]: > 100 µM
TGI [16]: > 100 µM
TGI [17]: > 100 µM
TGI [18]: > 100 µM
TGI [19]: > 100 µM
TGI [20]: > 100 µM
TGI [21]: > 100 µM
TGI [22]: > 100 µM
TGI [23]: > 100 µM
TGI [24]: > 100 µM
TGI [25]: > 100 µM
TGI [26]: > 100 µM
TGI [27]: > 100 µM
TGI [28]: > 100 µM
TGI [29]: > 100 µM
TGI [30]: > 100 µM
TGI [31]: > 100 µM
TGI [32]: > 100 µM
TGI [33]: > 100 µM
TGI [34]: > 100 µM
TGI [35]: > 100 µM
TGI [36]: > 100 µM
TGI [37]: > 100 µM
TGI [38]: > 100 µM
TGI [39]: > 100 µM
TGI [40]: > 100 µM
TGI [41]: > 100 µM
TGI [42]: > 100 µM
TGI [43]: > 100 µM
TGI [44]: > 100 µM
TGI [45]: > 100 µM
TGI [46]: > 100 µM
TGI [47]: > 100 µM
TGI [48]: > 100 µM
TGI [49]: > 100 µM
TGI [50]: > 100 µM
TGI [51]: > 100 µM
TGI [52]: > 100 µM

CCCCCCCCCCCCCCCCCC(=O)NCC(COP(=O)([O-])OCC[N+](C)(C)C)OCC (stereo not drawn)
TGI [4]: 33 µM
TGI [7]: 31.6 µM
TGI [10]: 33.4 µM
TGI [13]: 44.6 µM
TGI [15]: 32.2 µM
TGI [20]: 32.9 µM
TGI [23]: 0.326 µM
TGI [24]: 34.6 µM
TGI [27]: 32.5 µM
TGI [30]: 38.7 µM
TGI [31]: 0.71 µM
TGI [34]: 36.1 µM
TGI [45]: 33.8 µM
TGI [48]: 0.284 µM
TGI [49]: 33.7 µM
TGI [53]: 37.5 µM

Reference: PubChem BioAssay (NCI)
